Test results: patent publication US6737383B1, “Herbicidal oxadiazolidines” (priority 1999, dated 2004)

What was measured:
bedstraw = test: Test B pre/postemergence bedstraw; format: in vivo, Galium aparine
How it was run: (§1)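 Response is a visual 0-to-10 score relative to untreated plants, where 0 means no effect and 10 means complete control, taken twelve to sixteen days after application. Treatments went onto soil at planting and onto foliage of 1- to 4-leaf plants, using a surfactant-containing non-phytotoxic solvent.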

blackgrass = test: Test B pre/postemergence blackgrass; format: in vivo, Alopecurus myosuroides
How it was run: as §1

surinam grass = test: Test B pre/postemergence surinam grass; format: in vivo, Brachiaria decumbens
How it was run: as §1

cocklebur = test: Test B pre/postemergence cocklebur; format: in vivo, Xanthium strumarium
How it was run: as §1

corn = test: Test B pre/postemergence corn; format: in vivo, Zea mays
How it was run: as §1

crabgrass = test: Test B pre/postemergence crabgrass; format: in vivo, Digitaria sanguinalis
How it was run: as §1

giant foxtail = test: Test B pre/postemergence giant foxtail; format: in vivo, Setaria faberii
How it was run: as §1

morningglory = test: Test B pre/postemergence morningglory; format: in vivo, Ipomoea hederacea
How it was run: as §1

pigweed = test: Test B pre/postemergence pigweed; format: in vivo, Amaranthus retroflexus
How it was run: as §1

rape = test: Test B pre/postemergence rape; format: in vivo, Brassica napus
How it was run: as §1

soybean = test: Test B pre/postemergence soybean; format: in vivo, Glycine max
How it was run: as §1

sugar beet = test: Test B pre/postemergence sugar beet; format: in vivo, Beta vulgaris
How it was run: as §1

velvetleaf = test: Test B pre/postemergence velvetleaf; format: in vivo, Abutilon theophrasti
How it was run: as §1

wheat = test: Test B pre/postemergence wheat; format: in vivo, Triticum aestivum
How it was run: as §1

wild oat = test: Test B pre/postemergence wild oat; format: in vivo, Avena fatua
How it was run: as §1

purple nutsedge = test: Test B pre/postemergence purple nutsedge; format: in vivo, Cyperus rotundus
How it was run: as §1

[1] = Preemergence, Rate 125 g/ha, scale of 0 to 10 where 0 is no effect and 10 is complete control
[2] = Preemergence, Rate 250 g/ha, scale 0 (no effect) to 10 (complete control)
[3] = Rate 62 g/ha, Preemergence, scale 0 to 10
[4] = Rate 500 g/ha, Preemergence, scale 0 to 10 (0 no effect, 10 complete control)
[5] = Preemergence, Rate 62 g/ha, scale of 0 to 10 where 0 is no effect and 10 is complete control
[6] = Preemergence, Rate 250 g/ha, scale of 0 to 10 where 0 is no effect and 10 is complete control
[7] = Preemergence, Rate 500 g/ha, scale of 0 to 10 where 0 is no effect and 10 is complete control
[8] = Rate 62 g/ha, Postemergence, scale of 0 to 10 where 0 is no effect and 10 is complete control
[9] = Rate 125 g/ha, Postemergence, scale 0 to 10
[10] = Rate 125 g/ha, Preemergence, scale of 0 to 10 where 0 is no effect and 10 is complete control
[11] = Rate 500 g/ha, Postemergence, scale 0 to 10, 0 no effect, 10 complete control

## CC(C)N(C(=O)n1oc(=O)n(CBr)c1=O)c1ccccc1 [Compound 755]
bedstraw; [1]
  Plant response rating, Bedstraw: 0
bedstraw; [2]
  Bedstraw plant response rating: 0
bedstraw; [3]
  Bedstraw plant response rating: 0
bedstraw; [4]
  Bedstraw plant response rating: 0
blackgrass; [1]
  Plant response rating, Blackgrass: 0
blackgrass; [2]
  Blackgrass plant response rating: 0
blackgrass; [3]
  Blackgrass plant response rating: 0
blackgrass; [4]
  Blackgrass plant response rating: 0
Surinam grass; [5]
  B. signalgrass plant response rating: 0
Surinam grass; [1]
  Plant response rating, B. signalgrass: 0
Surinam grass; [2]
  B. signalgrass plant response rating: 0
Surinam grass; [4]
  B. signalgrass plant response rating: 0
cocklebur; [1]
  Plant response rating, Cocklebur: 0
cocklebur; [2]
  Cocklebur plant response rating: 0
cocklebur; [3]
  Cocklebur plant response rating: 0
cocklebur; [4]
  Cocklebur plant response rating: 0
corn; [1]
  Plant response rating, Corn: 0
corn; [2]
  Corn plant response rating: 0
corn; [3]
  Corn plant response rating: 0
corn; [4]
  Corn plant response rating: 0
crabgrass; [1]
  Plant response rating, Crabgrass: 0
crabgrass; [2]
  Crabgrass plant response rating: 0
crabgrass; [3]
  Crabgrass plant response rating: 0
crabgrass; [4]
  Crabgrass plant response rating: 0
Giant foxtail; [1]
  Plant response rating, Giant foxtail: 0
Giant foxtail; [2]
  Giant foxtail plant response rating: 0
Giant foxtail; [3]
  Giant foxtail plant response rating: 0
Giant foxtail; [4]
  Giant foxtail plant response rating: 2
morningglory; [1]
  Plant response rating, Morningglory: 0
morningglory; [2]
  Morningglory plant response rating: 0
morningglory; [3]
  Morningglory plant response rating: 0
morningglory; [4]
  Morningglory plant response rating: 0
pigweed; [1]
  Plant response rating, Redroot pigweed: 0
pigweed; [2]
  Redroot pigweed plant response rating: 0
pigweed; [3]
  Redroot pigweed plant response rating: 0
pigweed; [4]
  Redroot pigweed plant response rating: 0
rape; [1]
  Plant response rating, Rape: 0
rape; [2]
  Rape plant response rating: 0
rape; [3]
  Rape plant response rating: 0
rape; [4]
  Rape plant response rating: 0
soybean; [1]
  Plant response rating, Soybean: 0
soybean; [2]
  Soybean plant response rating: 0
soybean; [3]
  Soybean plant response rating: 0
soybean; [4]
  Soybean plant response rating: 0
Sugar beet; [1]
  Plant response rating, Sugarbeets: 0
Sugar beet; [2]
  Sugarbeets plant response rating: 0
Sugar beet; [3]
  Sugarbeets plant response rating: 0
Sugar beet; [4]
  Sugarbeets plant response rating: 0
velvetleaf; [1]
  Plant response rating, Velvetleaf: 0
velvetleaf; [2]
  Velvetleaf plant response rating: 0
velvetleaf; [3]
  Velvetleaf plant response rating: 0
velvetleaf; [4]
  Velvetleaf plant response rating: 0
wheat; [1]
  Plant response rating, Wheat: 0
wheat; [2]
  Wheat plant response rating: 0
wheat; [3]
  Wheat plant response rating: 0
wheat; [4]
  Wheat plant response rating: 0
Wild oat; [1]
  Plant response rating, Wild oats: 0
Wild oat; [2]
  Wild oats plant response rating: 0
Wild oat; [3]
  Wild oats plant response rating: 0
Wild oat; [4]
  Wild oats plant response rating: 0
Purple nutsedge; [2]
  Nutsedge plant response rating: 0
Purple nutsedge; [3]
  Nutsedge plant response rating: 0
Purple nutsedge; [4]
  Nutsedge plant response rating: 0

## CC(C)=CCCC(C)=CCn1c(=O)on(C(=O)N(c2ccc(F)cc2)C(C)C)c1=O [Compound 262]
bedstraw; [5]
  Bedstraw plant response rating: 0
bedstraw; [6]
  Bedstraw plant response rating: 0
bedstraw; [7]
  Plant response rating, Bedstraw: 0
bedstraw; [8]
  Bedstraw plant response rating: 0
bedstraw; [9]
  Bedstraw plant response rating: 0
bedstraw; [10]
  Bedstraw plant response rating: 0
blackgrass; [5]
  Blackgrass plant response rating: 0
blackgrass; [6]
  Blackgrass plant response rating: 2
blackgrass; [7]
  Plant response rating, Blackgrass: 4
blackgrass; [8]
  Blackgrass plant response rating: 0
blackgrass; [9]
  Blackgrass plant response rating: 0
blackgrass; [10]
  Blackgrass plant response rating: 0
blackgrass; Rate 250 g/ha, Postemergence
  Plant response rating (0 to 10; 0 is no effect, 10 is complete control), Blackgrass: 0
blackgrass; [11]
  Blackgrass plant response rating: 0
Surinam grass; [5]
  B. signalgrass plant response rating: 0
Surinam grass; [6]
  B. signalgrass plant response rating: 0
Surinam grass; [7]
  Plant response rating, B. signalgrass: 0
Surinam grass; [8]
  B. signalgrass plant response rating: 0
Surinam grass; Rate 125 g/ha, Postemergence, scale 0 (no effect) to 10 (complete control)
  B. signalgrass plant response rating: 0
Surinam grass; [10]
  B. signalgrass plant response rating: 0
Surinam grass; Rate 250 g/ha, Postemergence
  Plant response rating (0 to 10; 0 is no effect, 10 is complete control), B. signalgrass: 0
Surinam grass; [11]
  B. signalgrass plant response rating: 0
cocklebur; [5]
  Cocklebur plant response rating: 0
cocklebur; [6]
  Cocklebur plant response rating: 0
cocklebur; [7]
  Plant response rating, Cocklebur: 0
cocklebur; [8]
  Cocklebur plant response rating: 0
cocklebur; [9]
  Cocklebur plant response rating: 0
cocklebur; [10]
  Cocklebur plant response rating: 0
cocklebur; Rate 250 g/ha, Postemergence
  Plant response rating (0 to 10; 0 is no effect, 10 is complete control), Cocklebur: 0
cocklebur; [11]
  Cocklebur plant response rating: 0
corn; [5]
  Corn plant response rating: 0
corn; [6]
  Corn plant response rating: 0
corn; [7]
  Plant response rating, Corn: 0
corn; [8]
  Corn plant response rating: 0
corn; [9]
  Corn plant response rating: 0
corn; [10]
  Corn plant response rating: 0
corn; Rate 250 g/ha, Postemergence
  Plant response rating (0 to 10; 0 is no effect, 10 is complete control), Corn: 0
corn; [11]
  Corn plant response rating: 0
crabgrass; [5]
  Crabgrass plant response rating: 0
crabgrass; [6]
  Crabgrass plant response rating: 2
crabgrass; [7]
  Plant response rating, Crabgrass: 3
crabgrass; [10]
  Crabgrass plant response rating: 2
crabgrass; Rate 250 g/ha, Postemergence
  Plant response rating (0 to 10; 0 is no effect, 10 is complete control), Crabgrass: 0
crabgrass; [11]
  Crabgrass plant response rating: 0
Giant foxtail; [5]
  Giant foxtail plant response rating: 0
Giant foxtail; [7]
  Plant response rating, Giant foxtail: 7
Giant foxtail; [10]
  Giant foxtail plant response rating: 3
Giant foxtail; Rate 250 g/ha, Postemergence
  Plant response rating (0 to 10; 0 is no effect, 10 is complete control), Giant foxtail: 0
Giant foxtail; [11]
  Giant foxtail plant response rating: 0
morningglory; [5]
  Morningglory plant response rating: 0
morningglory; [6]
  Morningglory plant response rating: 0
morningglory; [7]
  Plant response rating, Morningglory: 0
morningglory; [10]
  Morningglory plant response rating: 0
morningglory; Rate 250 g/ha, Postemergence
  Plant response rating (0 to 10; 0 is no effect, 10 is complete control), Morningglory: 5
morningglory; [11]
  Morningglory plant response rating: 7
pigweed; [5]
  Redroot pigweed plant response rating: 0
pigweed; [6]
  Redroot pigweed plant response rating: 0
pigweed; [7]
  Plant response rating, Redroot pigweed: 0
pigweed; [10]
  Redroot pigweed plant response rating: 0
pigweed; Rate 250 g/ha, Postemergence
  Plant response rating (0 to 10; 0 is no effect, 10 is complete control), Redroot pigweed: 3
pigweed; [11]
  Redroot pigweed plant response rating: 4
rape; [5]
  Rape plant response rating: 0
rape; [6]
  Rape plant response rating: 0
rape; [7]
  Plant response rating, Rape: 0
rape; [10]
  Rape plant response rating: 0
rape; Rate 250 g/ha, Postemergence
  Plant response rating (0 to 10; 0 is no effect, 10 is complete control), Rape: 0
rape; [11]
  Rape plant response rating: 0
soybean; [5]
  Soybean plant response rating: 0
soybean; [6]
  Soybean plant response rating: 0
soybean; [7]
  Plant response rating, Soybean: 0
soybean; [10]
  Soybean plant response rating: 0
soybean; [11]
  Soybean plant response rating: 4
Sugar beet; [5]
  Sugarbeets plant response rating: 0
Sugar beet; [6]
  Sugarbeets plant response rating: 0
Sugar beet; [7]
  Plant response rating, Sugarbeets: 0
Sugar beet; [10]
  Sugarbeets plant response rating: 0
Sugar beet; [11]
  Sugarbeets plant response rating: 0
velvetleaf; [5]
  Velvetleaf plant response rating: 0
velvetleaf; [6]
  Velvetleaf plant response rating: 0
velvetleaf; [7]
  Plant response rating, Velvetleaf: 0
velvetleaf; [10]
  Velvetleaf plant response rating: 0
velvetleaf; [11]
  Velvetleaf plant response rating: 2
wheat; [5]
  Wheat plant response rating: 0
wheat; [6]
  Wheat plant response rating: 0
wheat; [7]
  Plant response rating, Wheat: 0
wheat; [10]
  Wheat plant response rating: 0
wheat; [11]
  Wheat plant response rating: 0
Wild oat; [5]
  Wild oats plant response rating: 0
Wild oat; [6]
  Wild oats plant response rating: 0
Wild oat; [7]
  Plant response rating, Wild oats: 0
Wild oat; [10]
  Wild oats plant response rating: 0
Wild oat; [11]
  Wild oats plant response rating: 0
Purple nutsedge; [5]
  Nutsedge plant response rating: 0
Purple nutsedge; [6]
  Nutsedge plant response rating: 0
Purple nutsedge; [7]
  Plant response rating, Nutsedge: 0
Purple nutsedge; [10]
  Nutsedge plant response rating: 0
Purple nutsedge; Rate 250 g/ha, Postemergence
  Plant response rating (0 to 10; 0 is no effect, 10 is complete control), Nutsedge: 0
Purple nutsedge; [11]
  Nutsedge plant response rating: 0
